One series concerns MPTP-lesioned marmosets. Description: L-DOPA-induced dyskinesia and parkinsonian disability in the MPTP-lesioned marmoset model of Parkinson's disease. Format: in vivo, marmosets (Callithrix jacchuis). The note with it: topiramate oral plus L-DOPA 15 mg/kg, n=6. The text has this:
The MPTP-lesioned primate represents the best animal model of Parkinson's disease and L-DOPA-induced dyskinesia, the most common form of dyskinesia encountered in the clinical situation. The pathology, symptomatology and response of symptoms to treatments and production of side effects following treatment are very similar in the MPTP-lesioned primate to those seen in Parkinson's disease patients. Thus, when untreated, MPTP-lesioned primates show parkinsonian symptoms such as reduced range of movement, reduced speed of movement (bradykinesia) and an abnormal, hunched, parkinsonian posture. […] A study was performed on six adult marmosets (Callithrix jacchuis) to assess the ability of topiramate to reduce dyskinesia, specifically L-DOPA-induced dyskinesia. The marmosets were rendered parkinsonian by subcutaneous injection of 2 mg/kg MPTP for 5 consecutive days. […] The degree of activity and disability before and after MPTP treatment were assessed using a combination of scales that measure locomotor activity, mobility, bradykinesia and posture (see below). […] Behavior was assessed for 6 hours post drug administration. […] Data were collected for each one hour time period for severity of dyskinesia and were analyzed with a Wilcoxon matched pairs test (the software used was Prism version 3.0, GraphPad Software Inc). […]

For series [1] the following is noted: cited from earlier work.
The next series concerns essential tremor. The note with it: clinical trial; cited from earlier work.

The text below walks through data of patent US20060069039A1, “Treatment of dyskinesia” (priority 2002, published 2006).

Where a name gives a salt, the structure may show the parent alone.

Turning to `CC1(C)O[C@@H]2[C@@H](CO[C@@]3(COS(N)(=O)=O)OC(C)(C)O[C@@H]23)O1` [Topiramate, 2,3:4,5-bis-O-(1-methylethylidene)-β-D-fructopyranose sulfamate], the “dyskinesia following topiramate and L-DOPA in comparison to L-DOPA alone” value with MPTP-lesioned marmosets (Wilcoxon P<0.05 at 0-1 h and 1-2 h, P>0.05 at 2-3 h) was “less dyskinesia”. Moreover, in the series on MPTP-lesioned marmosets (Wilcoxon P>0.05), the “effect on the anti-Parkinsonian action of L-DOPA (parkinsonian disability)” value is recorded as “without major effect”. The “solubility in alkaline solutions” value in series [1] (alkaline solutions containing sodium hydroxide or sodium phosphate, pH of 9 to 10) is on record as “most soluble”. For the same compound, in series [1] (organic solvents), the “solubility in acetone, chloroform, dimethylsulfoxide and ethanol” value is given as “freely soluble”. Besides, the “pH of saturated solution” value in series [1] (saturated solution) is recorded as 6.3. Further, the “mean improvement in tremor” value with essential tremor is 25%.

Consider `CCN(CC)CCNC(=O)c1cc(Cl)c(N)cc1OC` [Metoclopramide hydrochloride, 4-amino-5-chloro-N-[2-(diethylamino)ethyl]-2-methoxy benzamide monohydrochloride monohydrate], for which the “solubility in water” value in series [1] (water) was “freely soluble”.
